Results taken from patent US20260242419A1, “A CYCLIC PEPTIDE FOR TRAPPING INTERLEUKIN-1 BETA” (Merck Sharp & Dohme LLC, priority 2023, published 2026).
Starred links: 1 amine or outer side, 2 acyl side, 3 side chain; linkers in the order of their positions; H or OH if unused. Non-standard residues stand in square brackets, D forms with d. Residues, ends and D or L forms follow the SMILES beside them. Trp(4-Cl)(βS-Me) = C[C@@H](c1c[nH]c2cccc(Cl)c12)[C@H](N)C(=O)O; dPro(4R-(4-pyridylmethyl)) = O=C(O)[C@H]1C[C@@H](Cc2ccncc2)CN1; Trp(βS-Me,4-F) = C[C@@H](c1c[nH]c2cccc(F)c12)[C@H](N)C(=O)O; Bip(4'-COOH) = N[C@@H](Cc1ccc(-c2ccc(C(=O)O)cc2)cc1)C(=O)O; Ala(1-bicyclo(1.1.1)pentyl) = N[C@@H](CC12CC(C1)C2)C(=O)O; Phe(4-(4-pyridyl)) = N[C@@H](Cc1ccc(-c2ccncc2)cc1)C(=O)O; dPro(3S-(4-F-Bn)) = O=C(O)[C@@H]1NCC[C@@H]1Cc1ccc(F)cc1; X27 = COc1ncc(-c2ccc(C[C@H](N[*:1])C(=O)[*:2])cc2)cn1; 1Nal(3S-Me) = C[C@@H](c1cccc2ccccc12)[C@H](N)C(=O)O; X32 = Cn1cnc(-c2ccc(C[C@H](N[*:1])C(=O)[*:2])cc2)c1; X12 = Cn1ccnc1-c1ccc(C[C@H](N[*:1])C(=O)[*:2])cc1; X40 = O=C([C@H](Cc1ccc(-c2cncnc2)cc1)N[*:1])[*:2]; X4 = O=C([C@H]1[C@@H](Cc2ccncc2)CCN1[*:1])[*:2]; Ala(morpholin-4-yl) = N[C@@H](CN1CCOCC1)C(=O)O; Ala(piperazin-1-yl) = N[C@@H](CN1CCNCC1)C(=O)O; Ala(pyrimidin-5-yl) = N[C@@H](Cc1cncnc1)C(=O)O; Phe(4-COOH) = N[C@@H](Cc1ccc(C(=O)O)cc1)C(=O)O; Bip = N[C@@H](Cc1ccc(-c2ccccc2)cc1)C(=O)O; Pro(cis-4-F) = O=C(O)[C@@H]1C[C@H](F)CN1; Phe(4-F) = N[C@@H](Cc1ccc(F)cc1)C(=O)O; X6 = O=C([C@H](Cc1ccncn1)N[*:1])[*:2]; d(αMeD) = C[C@@](N)(CC(=O)O)C(=O)O; 4Pal = N[C@@H](Cc1ccncc1)C(=O)O; aThr = C[C@H](O)[C@H](N)C(=O)O; Dab = NCC[C@H](N)C(=O)O; Aib = CC(C)(N)C(=O)O

Biological target: T1, IL-1β (Homo sapiens, UniProt P01584)
T1 construct: purchased BioLegend 579404
T1 sequence (P01584 117-269): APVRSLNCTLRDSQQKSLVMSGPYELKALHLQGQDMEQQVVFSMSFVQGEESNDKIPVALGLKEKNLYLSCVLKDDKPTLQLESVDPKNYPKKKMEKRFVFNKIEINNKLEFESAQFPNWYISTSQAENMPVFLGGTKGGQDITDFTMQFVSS
Assay: IL-6 assay in MRC5 cells: inhibition of IL-1β induced IL-6 secretion (AlphaLISA)
Assay type: cell-based
Details: inhibition of IL-1β induced IL-6 secretion in MRC5 cells; compound pre-incubated 1 hour with recombinant human IL-1β; read-out: MRC5 IC50
Method in brief: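 Compound was pre-incubated 1 h at ambient temperature with recombinant human IL-1β at 2λ EC80 before adding human lung fibroblast MRC5 cells (3000/well) in EMEM with 0.025% BSA. After overnight culture at 37 °C, 5% CO2, secreted IL-6 in conditioned medium was measured by AlphaLISA; IC50 from 4-parameter logistic fits.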

Row | Structure (SMILES) | IC50 [nM]
1 | C[C@@H](c1c[nH]c2cccc(F)c12)[C@@H]1NC(=O)[C@@H]2C[C@H](F)CN2C(=O)CNC(=O)[C@H](Cc2ccc(C(=O)O)cc2)NC(=O)[C@H](Cc2ccncc2)NC(=O)[C@H](Cc2ccc(F)cc2)NC(=O)[C@H]2[C@@H](Cc3ccc(F)cc3)CCN2C(=O)CNC(=O)[C@H](CCN)NC(=O)[C@H](CCC(N)=O)NC(=O)[C@H](Cc2cncnc2)NC(=O)[C@@](C)(CC(=O)O)NC(=O)[C@H](Cc2c[nH]c3ccccc23)NC(=O)[C@H](CO)NC(=O)C(C)(C)NC1=O [Example 277] (cyclo([Phe(4-F)][4Pal][Phe(4-COOH)]G[Pro(cis-4-F)][Trp(βS-Me,4-F)][Aib]SW[d(αMeD)][Ala(pyrimidin-5-yl)]Q[Dab]G[dPro(3S-(4-F-Bn))])) | 0.023
2 | C[C@@H](c1c[nH]c2cccc(F)c12)[C@@H]1NC(=O)[C@@H]2C[C@H](F)CN2C(=O)CNC(=O)[C@H](Cc2ccc(C(=O)O)cc2)NC(=O)[C@H](Cc2ccncc2)NC(=O)[C@H](Cc2ccc(O)cc2)NC(=O)[C@H]2[C@@H](Cc3ccc(F)cc3)CCN2C(=O)CNC(=O)[C@H](CCN)NC(=O)[C@H](CCC(N)=O)NC(=O)[C@H](Cc2cncnc2)NC(=O)[C@@](C)(CC(=O)O)NC(=O)[C@H](Cc2c[nH]c3ccccc23)NC(=O)[C@H](CO)NC(=O)C(C)(C)NC1=O [Example 278] (cyclo(Y[4Pal][Phe(4-COOH)]G[Pro(cis-4-F)][Trp(βS-Me,4-F)][Aib]SW[d(αMeD)][Ala(pyrimidin-5-yl)]Q[Dab]G[dPro(3S-(4-F-Bn))])) | 0.021
3 | C[C@@H](c1c[nH]c2cccc(F)c12)[C@@H]1NC(=O)[C@@H]2C[C@H](F)CN2C(=O)CNC(=O)[C@H](Cc2ccc(C(=O)O)cc2)NC(=O)[C@H](Cc2ccncc2)NC(=O)[C@H](Cc2ccc(-c3cn(C)cn3)cc2)NC(=O)[C@H]2[C@@H](Cc3ccc(F)cc3)CCN2C(=O)CNC(=O)[C@H](CCN)NC(=O)[C@H](CCC(N)=O)NC(=O)[C@H](Cc2cncnc2)NC(=O)[C@@](C)(CC(=O)O)NC(=O)[C@H](Cc2c[nH]c3ccccc23)NC(=O)[C@H](CO)NC(=O)C(C)(C)NC1=O [Example 279] (cyclo([X32][4Pal][Phe(4-COOH)]G[Pro(cis-4-F)][Trp(βS-Me,4-F)][Aib]SW[d(αMeD)][Ala(pyrimidin-5-yl)]Q[Dab]G[dPro(3S-(4-F-Bn))])) | 0.013
4 | C[C@@H](c1c[nH]c2cccc(F)c12)[C@@H]1NC(=O)[C@@H]2C[C@H](F)CN2C(=O)CNC(=O)[C@H](Cc2ccc(C(=O)O)cc2)NC(=O)[C@H](Cc2ccncc2)NC(=O)[C@H](Cc2ccc(-c3nccn3C)cc2)NC(=O)[C@H]2[C@@H](Cc3ccc(F)cc3)CCN2C(=O)CNC(=O)[C@H](CCN)NC(=O)[C@H](CCC(N)=O)NC(=O)[C@H](Cc2cncnc2)NC(=O)[C@@](C)(CC(=O)O)NC(=O)[C@H](Cc2c[nH]c3ccccc23)NC(=O)[C@H](CO)NC(=O)C(C)(C)NC1=O [Example 280] (cyclo([X12][4Pal][Phe(4-COOH)]G[Pro(cis-4-F)][Trp(βS-Me,4-F)][Aib]SW[d(αMeD)][Ala(pyrimidin-5-yl)]Q[Dab]G[dPro(3S-(4-F-Bn))])) | 0.016
5 | COc1ncc(-c2ccc(C[C@@H]3NC(=O)[C@H]4[C@@H](Cc5ccc(F)cc5)CCN4C(=O)CNC(=O)[C@H](CCN)NC(=O)[C@H](CCC(N)=O)NC(=O)[C@H](Cc4cncnc4)NC(=O)[C@@](C)(CC(=O)O)NC(=O)[C@H](Cc4c[nH]c5ccccc45)NC(=O)[C@H](CO)NC(=O)C(C)(C)NC(=O)[C@H]([C@@H](C)c4c[nH]c5cccc(F)c45)NC(=O)[C@@H]4C[C@H](F)CN4C(=O)CNC(=O)[C@H](Cc4ccc(C(=O)O)cc4)NC(=O)[C@H](Cc4ccncc4)NC3=O)cc2)cn1 [Example 281] (cyclo([X27][4Pal][Phe(4-COOH)]G[Pro(cis-4-F)][Trp(βS-Me,4-F)][Aib]SW[d(αMeD)][Ala(pyrimidin-5-yl)]Q[Dab]G[dPro(3S-(4-F-Bn))])) | 0.012
6 | C[C@@H](c1c[nH]c2cccc(F)c12)[C@@H]1NC(=O)[C@@H]2C[C@H](F)CN2C(=O)CNC(=O)[C@H](Cc2ccc(C(=O)O)cc2)NC(=O)[C@H](Cc2ccncc2)NC(=O)[C@H](Cc2ccc(-c3cncnc3)cc2)NC(=O)[C@H]2[C@@H](Cc3ccc(F)cc3)CCN2C(=O)CNC(=O)[C@H](CCN)NC(=O)[C@H](CCC(N)=O)NC(=O)[C@H](Cc2cncnc2)NC(=O)[C@@](C)(CC(=O)O)NC(=O)[C@H](Cc2c[nH]c3ccccc23)NC(=O)[C@H](CO)NC(=O)C(C)(C)NC1=O [Example 282] (cyclo([X40][4Pal][Phe(4-COOH)]G[Pro(cis-4-F)][Trp(βS-Me,4-F)][Aib]SW[d(αMeD)][Ala(pyrimidin-5-yl)]Q[Dab]G[dPro(3S-(4-F-Bn))])) | 0.014
7 | C[C@@H](c1c[nH]c2cccc(F)c12)[C@@H]1NC(=O)[C@@H]2C[C@H](F)CN2C(=O)CNC(=O)[C@H](Cc2ccc(C(=O)O)cc2)NC(=O)[C@H](Cc2ccncc2)NC(=O)[C@H](Cc2ccc(-c3ccncc3)cc2)NC(=O)[C@H]2[C@@H](Cc3ccc(F)cc3)CCN2C(=O)CNC(=O)[C@H](CCN)NC(=O)[C@H](CCC(N)=O)NC(=O)[C@H](Cc2cncnc2)NC(=O)[C@@](C)(CC(=O)O)NC(=O)[C@H](Cc2c[nH]c3ccccc23)NC(=O)[C@H](CO)NC(=O)C(C)(C)NC1=O [Example 283] (cyclo([Phe(4-(4-pyridyl))][4Pal][Phe(4-COOH)]G[Pro(cis-4-F)][Trp(βS-Me,4-F)][Aib]SW[d(αMeD)][Ala(pyrimidin-5-yl)]Q[Dab]G[dPro(3S-(4-F-Bn))])) | 0.016
8 | C[C@@H](c1c[nH]c2cccc(F)c12)[C@@H]1NC(=O)[C@@H]2C[C@H](F)CN2C(=O)CNC(=O)[C@H](Cc2ccc(C(=O)O)cc2)NC(=O)[C@H](CC23CC(C2)C3)NC(=O)[C@H](Cc2ccc(-c3ccc(C(=O)O)cc3)cc2)NC(=O)[C@H]2[C@@H](Cc3ccncc3)CCN2C(=O)CNC(=O)[C@H](CCN)NC(=O)[C@H](CCC(N)=O)NC(=O)[C@H](Cc2ccncn2)NC(=O)[C@@](C)(CC(=O)O)NC(=O)[C@H](Cc2c[nH]c3ccccc23)NC(=O)[C@H](CO)NC(=O)C(C)(C)NC1=O [Example 284] (cyclo([Bip(4'-COOH)][Ala(1-bicyclo(1.1.1)pentyl)][Phe(4-COOH)]G[Pro(cis-4-F)][Trp(βS-Me,4-F)][Aib]SW[d(αMeD)][X6]Q[Dab]G[X4])) | 0.015
9 | C[C@@H](c1c[nH]c2cccc(F)c12)[C@@H]1NC(=O)[C@@H]2C[C@H](F)CN2C(=O)CNC(=O)[C@H](Cc2ccc(C(=O)O)cc2)NC(=O)[C@H](CC23CC(C2)C3)NC(=O)[C@H](Cc2ccc(-c3ccc(C(=O)O)cc3)cc2)NC(=O)[C@H]2C[C@@H](Cc3ccncc3)CN2C(=O)CNC(=O)[C@H](CCN)NC(=O)[C@H](CCC(N)=O)NC(=O)[C@H](Cc2ccncn2)NC(=O)[C@@](C)(CC(=O)O)NC(=O)[C@H](Cc2c[nH]c3ccccc23)NC(=O)[C@H](CO)NC(=O)C(C)(C)NC1=O [Example 285] (cyclo([Bip(4'-COOH)][Ala(1-bicyclo(1.1.1)pentyl)][Phe(4-COOH)]G[Pro(cis-4-F)][Trp(βS-Me,4-F)][Aib]SW[d(αMeD)][X6]Q[Dab]G[dPro(4R-(4-pyridylmethyl))])) | 0.013
10 | C[C@@H](c1c[nH]c2cccc(F)c12)[C@@H]1NC(=O)[C@@H]2C[C@H](F)CN2C(=O)CNC(=O)[C@H](Cc2ccc(C(=O)O)cc2)NC(=O)[C@H](Cc2ccncc2)NC(=O)[C@H](Cc2ccc(-c3ccc(C(=O)O)cc3)cc2)NC(=O)[C@H]2[C@@H](Cc3ccc(F)cc3)CCN2C(=O)CNC(=O)[C@H](CCN)NC(=O)[C@H](CCC(N)=O)NC(=O)[C@H](CN2CCOCC2)NC(=O)[C@@](C)(CC(=O)O)NC(=O)[C@H](Cc2c[nH]c3ccccc23)NC(=O)[C@H](CO)NC(=O)C(C)(C)NC1=O [Example 286] (cyclo([Bip(4'-COOH)][4Pal][Phe(4-COOH)]G[Pro(cis-4-F)][Trp(βS-Me,4-F)][Aib]SW[d(αMeD)][Ala(morpholin-4-yl)]Q[Dab]G[dPro(3S-(4-F-Bn))])) | 0.01
11 | C[C@@H](c1c[nH]c2cccc(F)c12)[C@@H]1NC(=O)[C@@H]2C[C@H](F)CN2C(=O)CNC(=O)[C@H](Cc2ccc(C(=O)O)cc2)NC(=O)[C@H](Cc2ccncc2)NC(=O)[C@H](Cc2ccc(-c3ccc(C(=O)O)cc3)cc2)NC(=O)[C@H]2[C@@H](Cc3ccc(F)cc3)CCN2C(=O)CNC(=O)[C@H](CCN)NC(=O)[C@H](CCC(N)=O)NC(=O)[C@H](CN2CCNCC2)NC(=O)[C@@](C)(CC(=O)O)NC(=O)[C@H](Cc2c[nH]c3ccccc23)NC(=O)[C@H](CO)NC(=O)C(C)(C)NC1=O [Example 287] (cyclo([Bip(4'-COOH)][4Pal][Phe(4-COOH)]G[Pro(cis-4-F)][Trp(βS-Me,4-F)][Aib]SW[d(αMeD)][Ala(piperazin-1-yl)]Q[Dab]G[dPro(3S-(4-F-Bn))])) | 0.011
12 | C[C@H](O)[C@@H]1NC(=O)[C@@](C)(CC(=O)O)NC(=O)[C@H](Cc2c[nH]c3ccccc23)NC(=O)[C@H](CO)NC(=O)C(C)(C)NC(=O)[C@H]([C@@H](C)c2cccc3ccccc23)NC(=O)[C@@H]2C[C@H](F)CN2C(=O)CNC(=O)[C@H](Cc2ccc(C(=O)O)cc2)NC(=O)[C@H](Cc2ccncc2)NC(=O)[C@H](Cc2ccc(-c3ccccc3)cc2)NC(=O)[C@H]2C[C@@H](Cc3ccncc3)CN2C(=O)CNC(=O)[C@H](CCN)NC(=O)[C@H](CCC(N)=O)NC1=O [Example 288] (cyclo([Bip][4Pal][Phe(4-COOH)]G[Pro(cis-4-F)][1Nal(3S-Me)][Aib]SW[d(αMeD)][aThr]Q[Dab]G[dPro(4R-(4-pyridylmethyl))])) | 0.019
13 | C[C@H](O)[C@@H]1NC(=O)[C@@](C)(CC(=O)O)NC(=O)[C@H](Cc2c[nH]c3ccccc23)NC(=O)[C@H](CO)NC(=O)C(C)(C)NC(=O)[C@H]([C@@H](C)c2c[nH]c3cccc(Cl)c23)NC(=O)[C@@H]2C[C@H](F)CN2C(=O)CNC(=O)[C@H](Cc2ccc(C(=O)O)cc2)NC(=O)[C@H](Cc2ccncc2)NC(=O)[C@H](Cc2ccc(-c3ccccc3)cc2)NC(=O)[C@H]2C[C@@H](Cc3ccncc3)CN2C(=O)CNC(=O)[C@H](CCN)NC(=O)[C@H](CCC(N)=O)NC1=O [Example 289] (cyclo([Bip][4Pal][Phe(4-COOH)]G[Pro(cis-4-F)][Trp(4-Cl)(βS-Me)][Aib]SW[d(αMeD)][aThr]Q[Dab]G[dPro(4R-(4-pyridylmethyl))])) | 0.015
